system: not listed separately; test: Solubility in D2O confirmed by NMR; type: physicochemical; settings: not given

`CCCCC(=O)c1ccc(OC)c(OC2CCNCC2)c1` [5i, 1-[4-Methoxy-3-(piperidin-4-yloxy)phenyl]pentan-1-one] gave a solubility of no more than 800 µM.

same assay, conditions: NMR study conditions

With `CCCC(=O)c1ccc(OC(F)F)c(Oc2ccccn2)c1` [5zi, 1-[4-Difluoromethoxy-3-(pyridin-2-yloxy)phenyl]butan-1-one] the “solubility / behaviour in NMR sample” value was “solubility and nonspecific binding problems”.

system: PDE4; test: not given; settings: Table 5, external test set s1–s9 from literature ref 19; cited from earlier work

Compared with `COc1ccc(C(=O)Nc2ccccc2F)cc1OC1CCCC1` [s1], `COc1ccc(C(=O)Nc2ccccc2C(F)(F)F)cc1OC1CCCC1` [s2] is higher in “actual pIC50” value: 4.97 for the first, 5.51 for the second.

Going from `COc1ccc(C(=O)Nc2c(Cl)cccc2Cl)cc1OC1CCCC1` [s3] to `COc1ccc(C(=S)Nc2c(Cl)cccc2Cl)cc1OC1CCCC1` [s9], the “actual pIC50” value falls from 7.55 to 6.70.

Going from `COc1ccc(C(=O)Nc2c(F)cccc2F)cc1O` [s4] to `CCCOc1cc(C(=O)Nc2c(F)cccc2F)ccc1OC` [s8], the “actual pIC50” value rises from 4.43 to 5.80.

Compared with `COc1ccc(C(=O)Nc2c(F)cccc2F)cc1OC1CCCCC1` [s5], `COc1ccc(C(=O)Nc2c(F)cccc2F)cc1OC1CCCC1` [s6] is higher in “actual pIC50” value: 6.40 for the first, 7.15 for the second.

In the case of `COc1ccc(C(=O)Nc2ccccc2Cl)cc1OC` [s7], the “actual pIC50” value is given as 6.19.

Source: paper PMC2950628 (Journal of medicinal chemistry, 2008)
